Assays:
Assay in all cases: radiometric filter-binding kinase assay
[1] = target: SRC (human) (UniProt P12931)
[2] = target: MAPK10 (human) (UniProt P53779)
[3] = target: MAPK15 (human) (UniProt Q8TD08)
[4] = target: MINK1 (human) (UniProt Q8N4C8)
[5] = target: NEK2 (human) (UniProt P51955)
[6] = target: PKN2 (human) (UniProt Q16513)
[7] = target: NTRK1 (human) (UniProt P04629)
[8] = target: IGF1R (human) (UniProt P08069)
[9] = target: MAP3K1 (human) (UniProt Q13233)
[10] = target: AURKB (human) (UniProt Q96GD4)
Chain of AURKB (human) (Q96GD4 whole entry, looked up): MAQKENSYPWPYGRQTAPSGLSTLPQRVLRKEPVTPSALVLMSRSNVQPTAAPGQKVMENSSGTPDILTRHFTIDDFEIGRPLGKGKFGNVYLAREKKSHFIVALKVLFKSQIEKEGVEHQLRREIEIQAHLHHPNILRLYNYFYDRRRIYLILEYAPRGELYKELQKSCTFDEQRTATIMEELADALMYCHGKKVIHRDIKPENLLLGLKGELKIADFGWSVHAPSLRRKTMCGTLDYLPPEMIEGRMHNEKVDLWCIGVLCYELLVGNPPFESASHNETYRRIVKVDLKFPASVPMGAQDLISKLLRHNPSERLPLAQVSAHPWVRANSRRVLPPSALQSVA

[11] = target: GCK (human) (UniProt Q12851)
[12] = target: CAMKK2 (human) (UniProt Q96RR4)
[13] = system: AKT2 (human), P31751 [S474D]
[14] = target: MKNK2 (human) (UniProt Q9HBH9)
Chain of MKNK2 (human) (Q9HBH9 whole entry, looked up): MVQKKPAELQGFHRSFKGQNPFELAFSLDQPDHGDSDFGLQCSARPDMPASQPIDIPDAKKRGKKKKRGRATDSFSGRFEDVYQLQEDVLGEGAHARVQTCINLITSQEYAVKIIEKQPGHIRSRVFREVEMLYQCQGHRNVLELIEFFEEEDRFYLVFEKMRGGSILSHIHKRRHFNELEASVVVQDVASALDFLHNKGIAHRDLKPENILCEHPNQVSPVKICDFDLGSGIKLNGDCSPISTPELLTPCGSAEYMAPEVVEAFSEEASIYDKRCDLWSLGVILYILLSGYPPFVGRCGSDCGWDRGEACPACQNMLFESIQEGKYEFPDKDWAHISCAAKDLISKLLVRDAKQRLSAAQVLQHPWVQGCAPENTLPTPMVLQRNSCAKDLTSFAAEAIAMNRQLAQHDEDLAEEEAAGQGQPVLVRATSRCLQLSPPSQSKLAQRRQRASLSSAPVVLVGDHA

[15] = target: EPHB4 (human) (UniProt P54760)
[16] = target: MAP2K1 (human) (UniProt Q02750)
Chain of MAP2K1 (human) (Q02750 whole entry, looked up): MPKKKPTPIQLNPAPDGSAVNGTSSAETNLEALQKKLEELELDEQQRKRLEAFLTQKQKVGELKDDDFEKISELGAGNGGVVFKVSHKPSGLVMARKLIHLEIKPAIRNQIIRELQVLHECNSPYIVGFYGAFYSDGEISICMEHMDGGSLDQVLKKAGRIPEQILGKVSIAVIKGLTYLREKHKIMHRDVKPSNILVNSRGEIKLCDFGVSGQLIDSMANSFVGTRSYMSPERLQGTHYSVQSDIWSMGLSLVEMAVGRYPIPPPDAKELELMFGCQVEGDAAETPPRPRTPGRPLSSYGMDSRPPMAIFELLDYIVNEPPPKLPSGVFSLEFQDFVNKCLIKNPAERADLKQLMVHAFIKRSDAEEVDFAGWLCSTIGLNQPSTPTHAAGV

[17] = target: PIM2 (human) (UniProt Q9P1W9)
[18] = target: STK11 CAB39 STRADA (human) (UniProt Q9Y376+Q7RTN6+Q15831)
[19] = target: CHEK2 (human) (UniProt O96017)
[20] = target: PRKACA (human) (UniProt P17612)
[21] = target: RPS6KA1 KD1 KD2 (human) (UniProt Q15418)
Chain of RPS6KA1 KD1 KD2 (human) (Q15418 whole entry, looked up): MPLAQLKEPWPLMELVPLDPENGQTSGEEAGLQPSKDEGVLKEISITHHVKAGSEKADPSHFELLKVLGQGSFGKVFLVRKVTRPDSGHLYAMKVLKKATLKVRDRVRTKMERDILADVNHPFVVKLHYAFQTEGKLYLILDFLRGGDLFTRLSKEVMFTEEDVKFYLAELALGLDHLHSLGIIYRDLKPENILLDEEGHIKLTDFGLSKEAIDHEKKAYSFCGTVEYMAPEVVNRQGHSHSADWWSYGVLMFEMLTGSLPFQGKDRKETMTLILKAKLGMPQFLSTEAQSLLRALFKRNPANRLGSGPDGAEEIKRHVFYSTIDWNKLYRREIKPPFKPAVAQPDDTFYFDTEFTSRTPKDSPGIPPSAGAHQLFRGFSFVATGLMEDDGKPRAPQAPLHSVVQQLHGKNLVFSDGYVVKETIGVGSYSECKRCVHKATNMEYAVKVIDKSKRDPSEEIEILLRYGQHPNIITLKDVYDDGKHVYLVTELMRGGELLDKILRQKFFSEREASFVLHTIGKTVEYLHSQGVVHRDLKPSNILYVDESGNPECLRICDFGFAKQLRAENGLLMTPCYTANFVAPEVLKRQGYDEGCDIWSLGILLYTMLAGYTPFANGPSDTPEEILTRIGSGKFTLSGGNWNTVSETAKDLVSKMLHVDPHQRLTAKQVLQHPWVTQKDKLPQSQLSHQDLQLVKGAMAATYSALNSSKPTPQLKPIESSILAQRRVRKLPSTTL

[22] = system: PRKAA1 or PRKAA2 (rat); details: accession and sequence are those of the human protein
[23] = target: CHEK1 (human) (UniProt O14757)
[24] = target: MARK2 (human) (UniProt Q7KZI7)
[25] = target: IKBKB (human) (UniProt O14920)
Chain of IKBKB (human) (O14920 whole entry, looked up): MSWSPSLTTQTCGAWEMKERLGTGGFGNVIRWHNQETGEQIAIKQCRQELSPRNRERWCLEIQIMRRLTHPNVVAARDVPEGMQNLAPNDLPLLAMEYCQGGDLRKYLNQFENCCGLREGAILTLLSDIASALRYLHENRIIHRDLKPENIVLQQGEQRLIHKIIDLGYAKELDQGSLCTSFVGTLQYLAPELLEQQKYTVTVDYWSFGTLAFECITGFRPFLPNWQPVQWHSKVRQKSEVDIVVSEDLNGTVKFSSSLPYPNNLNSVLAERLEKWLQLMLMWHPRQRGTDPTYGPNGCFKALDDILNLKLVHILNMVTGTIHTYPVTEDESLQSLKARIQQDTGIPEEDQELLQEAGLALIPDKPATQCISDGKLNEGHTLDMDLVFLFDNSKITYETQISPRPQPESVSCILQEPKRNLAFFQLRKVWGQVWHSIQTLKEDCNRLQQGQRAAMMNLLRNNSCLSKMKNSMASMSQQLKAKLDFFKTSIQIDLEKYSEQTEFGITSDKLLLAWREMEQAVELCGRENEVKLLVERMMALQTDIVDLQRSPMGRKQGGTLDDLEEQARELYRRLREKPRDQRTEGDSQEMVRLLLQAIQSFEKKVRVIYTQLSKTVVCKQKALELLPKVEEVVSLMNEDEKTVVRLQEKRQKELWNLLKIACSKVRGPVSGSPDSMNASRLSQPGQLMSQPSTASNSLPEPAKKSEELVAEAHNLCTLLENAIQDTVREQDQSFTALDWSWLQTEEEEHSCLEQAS

[26] = target: MAP3K5 (human) (UniProt Q99683)
[27] = target: PHKG1 (human) (UniProt Q16816)
[28] = target: MKNK1 (human) (UniProt Q9BUB5)
[29] = target: STK3 (human) (UniProt Q13188)
Chain of STK3 (human) (Q13188 whole entry, looked up): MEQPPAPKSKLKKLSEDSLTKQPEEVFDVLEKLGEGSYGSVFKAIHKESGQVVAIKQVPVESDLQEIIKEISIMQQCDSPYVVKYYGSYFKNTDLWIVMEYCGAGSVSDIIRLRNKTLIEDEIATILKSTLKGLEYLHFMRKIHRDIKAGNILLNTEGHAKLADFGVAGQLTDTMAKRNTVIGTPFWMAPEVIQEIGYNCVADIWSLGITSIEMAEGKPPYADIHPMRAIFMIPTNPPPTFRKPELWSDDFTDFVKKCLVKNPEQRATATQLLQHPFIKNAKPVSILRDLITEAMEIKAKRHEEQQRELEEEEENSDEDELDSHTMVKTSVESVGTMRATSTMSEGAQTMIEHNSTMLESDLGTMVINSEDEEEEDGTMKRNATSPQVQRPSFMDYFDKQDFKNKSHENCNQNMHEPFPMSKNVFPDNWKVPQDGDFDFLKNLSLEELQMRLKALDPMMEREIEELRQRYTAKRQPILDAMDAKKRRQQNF

[30] = target: PRKCA (human) (UniProt P17252)
[31] = target: MAPK9 (human) (UniProt P45984); details: compound 50.0 µM
[32] = target: MAPKAPK2 (human) (UniProt P49137)
Chain of MAPKAPK2 (human) (P49137 whole entry, looked up): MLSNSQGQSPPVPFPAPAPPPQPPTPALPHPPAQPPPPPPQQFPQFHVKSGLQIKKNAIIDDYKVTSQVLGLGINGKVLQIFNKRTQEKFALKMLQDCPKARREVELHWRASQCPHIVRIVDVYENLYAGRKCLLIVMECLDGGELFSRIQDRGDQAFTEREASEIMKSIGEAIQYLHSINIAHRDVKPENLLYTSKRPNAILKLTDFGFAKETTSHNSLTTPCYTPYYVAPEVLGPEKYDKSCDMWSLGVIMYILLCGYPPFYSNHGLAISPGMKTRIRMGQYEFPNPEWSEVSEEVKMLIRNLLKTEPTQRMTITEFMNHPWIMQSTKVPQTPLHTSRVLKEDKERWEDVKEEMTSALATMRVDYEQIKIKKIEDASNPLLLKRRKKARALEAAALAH

[33] = target: MAPK3 (human) (UniProt P27361)
[34] = target: YES1 (human) (UniProt P07947)
[35] = target: MAPK1 (human) (UniProt P28482)
Chain of MAPK1 (human) (P28482 whole entry, looked up): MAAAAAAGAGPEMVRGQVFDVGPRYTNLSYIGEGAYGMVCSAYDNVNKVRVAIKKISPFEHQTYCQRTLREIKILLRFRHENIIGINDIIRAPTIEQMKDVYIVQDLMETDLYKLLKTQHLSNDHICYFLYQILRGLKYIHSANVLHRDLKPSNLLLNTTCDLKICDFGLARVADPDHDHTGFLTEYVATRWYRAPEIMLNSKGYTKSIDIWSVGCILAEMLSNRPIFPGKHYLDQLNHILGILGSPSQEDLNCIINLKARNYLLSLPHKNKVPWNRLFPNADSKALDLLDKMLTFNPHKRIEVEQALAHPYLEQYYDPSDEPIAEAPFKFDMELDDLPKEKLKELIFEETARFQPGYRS

Chain of MAPK10 (human) (P53779 whole entry, looked up): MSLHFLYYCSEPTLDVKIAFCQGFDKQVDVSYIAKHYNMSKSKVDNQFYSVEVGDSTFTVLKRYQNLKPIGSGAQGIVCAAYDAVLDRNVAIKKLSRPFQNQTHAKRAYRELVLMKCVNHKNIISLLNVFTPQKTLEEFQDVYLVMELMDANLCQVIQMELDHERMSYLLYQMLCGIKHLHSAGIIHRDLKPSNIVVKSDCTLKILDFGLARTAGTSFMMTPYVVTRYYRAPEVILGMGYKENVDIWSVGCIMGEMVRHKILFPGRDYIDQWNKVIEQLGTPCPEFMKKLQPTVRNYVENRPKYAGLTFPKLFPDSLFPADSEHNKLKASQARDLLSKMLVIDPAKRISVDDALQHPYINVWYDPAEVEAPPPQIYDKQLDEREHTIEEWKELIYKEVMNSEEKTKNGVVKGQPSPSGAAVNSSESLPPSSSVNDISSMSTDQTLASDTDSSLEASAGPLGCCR
Chain of NEK2 (human) (P51955 whole entry, looked up): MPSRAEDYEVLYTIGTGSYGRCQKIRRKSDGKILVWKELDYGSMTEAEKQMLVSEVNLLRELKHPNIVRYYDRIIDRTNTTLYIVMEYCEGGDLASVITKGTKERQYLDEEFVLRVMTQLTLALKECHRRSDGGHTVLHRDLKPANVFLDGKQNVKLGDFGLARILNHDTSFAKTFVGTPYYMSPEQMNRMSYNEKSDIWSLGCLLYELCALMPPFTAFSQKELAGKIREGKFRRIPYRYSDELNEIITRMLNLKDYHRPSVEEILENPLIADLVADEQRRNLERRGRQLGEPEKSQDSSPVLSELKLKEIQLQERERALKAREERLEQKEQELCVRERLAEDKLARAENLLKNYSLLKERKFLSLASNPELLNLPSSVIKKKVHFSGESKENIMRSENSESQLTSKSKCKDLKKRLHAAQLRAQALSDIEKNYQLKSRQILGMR

CCCC(CCC)C(=O)O
residual activity ([1]; compound 1.0 µM): 100%
residual activity ([1]; compound 10.0 µM): 87%
residual activity ([1]; compound 50.0 µM): 94%
residual activity ([2]; compound 1.0 µM): 88%
residual activity ([2]; compound 10.0 µM): 85%
residual activity ([2]; compound 50.0 µM): 89%
residual activity ([3]; compound 1.0 µM): 90%
residual activity ([3]; compound 10.0 µM): 86%
residual activity ([3]; compound 50.0 µM): 94%
residual activity ([4]; compound 10.0 µM): 68%
residual activity ([4]; compound 50.0 µM): 76%
residual activity ([5]; compound 1.0 µM): 79%
residual activity ([5]; compound 10.0 µM): 93%
residual activity ([5]; compound 50.0 µM): 91%
residual activity ([6]; compound 1.0 µM): 83%
residual activity ([6]; compound 10.0 µM): 106%
residual activity ([7]; compound 10.0 µM): 91%
residual activity ([7]; compound 50.0 µM): 89%
residual activity ([8]; compound 10.0 µM): 76%
residual activity ([8]; compound 50.0 µM): 56%
residual activity ([9]; compound 10.0 µM): 107%
residual activity ([9]; compound 50.0 µM): 96%
residual activity ([10]; compound 1.0 µM): 90%
residual activity ([10]; compound 10.0 µM): 99%
residual activity ([10]; compound 50.0 µM): 83%
residual activity ([11]; compound 10.0 µM): 87%
residual activity ([11]; compound 50.0 µM): 98%
residual activity ([12]; compound 10.0 µM): 98%
residual activity ([12]; compound 50.0 µM): 104%
residual activity ([13]; compound 10.0 µM): 86%
residual activity ([13]; compound 50.0 µM): 80%
residual activity ([14]; compound 1.0 µM): 90%
residual activity ([14]; compound 10.0 µM): 106%
residual activity ([14]; compound 50.0 µM): 126%
residual activity ([15]; compound 10.0 µM): 98%
residual activity ([15]; compound 50.0 µM): 97%
residual activity ([16]; compound 1.0 µM): 86%
residual activity ([16]; compound 10.0 µM): 89%
residual activity ([16]; compound 50.0 µM): 99%
residual activity ([17]; compound 1.0 µM): 83%
residual activity ([17]; compound 10.0 µM): 104%
residual activity ([17]; compound 50.0 µM): 98%
residual activity ([18]; compound 10.0 µM): 84%
residual activity ([18]; compound 50.0 µM): 85%
residual activity ([19]; compound 1.0 µM): 83%
residual activity ([19]; compound 10.0 µM): 97%
residual activity ([19]; compound 50.0 µM): 95%
residual activity ([20]; compound 1.0 µM): 82%
residual activity ([20]; compound 10.0 µM): 91%
residual activity ([20]; compound 50.0 µM): 93%
residual activity ([21]; compound 1.0 µM): 99%
residual activity ([21]; compound 10.0 µM): 100%
residual activity ([21]; compound 50.0 µM): 96%
residual activity ([22]; compound 1.0 µM): 98%
residual activity ([22]; compound 10.0 µM): 94%
residual activity ([22]; compound 50.0 µM): 91%
residual activity ([23]; compound 1.0 µM): 82%
residual activity ([23]; compound 10.0 µM): 95%
residual activity ([23]; compound 50.0 µM): 95%
residual activity ([24]; compound 10.0 µM): 104%
residual activity ([24]; compound 50.0 µM): 90%
residual activity ([25]; compound 1.0 µM): 86%
residual activity ([25]; compound 10.0 µM): 79%
residual activity ([25]; compound 50.0 µM): 88%
residual activity ([26]; compound 10.0 µM): 92%
residual activity ([26]; compound 50.0 µM): 83%
residual activity ([27]; compound 1.0 µM): 110%
residual activity ([27]; compound 10.0 µM): 89%
residual activity ([27]; compound 50.0 µM): 81%
residual activity ([28]; compound 1.0 µM): 86%
residual activity ([28]; compound 10.0 µM): 112%
residual activity ([29]; compound 1.0 µM): 90%
residual activity ([29]; compound 10.0 µM): 88%
residual activity ([29]; compound 50.0 µM): 87%
residual activity ([30]; compound 1.0 µM): 88%
residual activity ([30]; compound 10.0 µM): 91%
residual activity ([30]; compound 50.0 µM): 95%
residual activity [31]: 104%
residual activity ([32]; compound 1.0 µM): 85%
residual activity ([32]; compound 10.0 µM): 102%
residual activity ([32]; compound 50.0 µM): 99%
residual activity ([33]; compound 10.0 µM): 88%
residual activity ([33]; compound 50.0 µM): 101%
residual activity ([34]; compound 10.0 µM): 91%
residual activity ([34]; compound 50.0 µM): 102%
residual activity ([35]; compound 1.0 µM): 98%
residual activity ([35]; compound 10.0 µM): 77%
residual activity ([35]; compound 50.0 µM): 80%

From the kinase profiling compilation of Christmann-Franck et al. (2016)
